According to US8790934B2, “Nanoparticles” (Consejo Superior de Investigaciones Cientificas, priority 2000, dated 2014):

Experiment: solubility in methanol and water
Assay type: physicochemical
Conditions: for solubility in methanol: methanol (MeOH)
Protocol: Synthesis of glyconanoparticles: A solution of disulphide 1,2, or 3 (0.012M, 5.5 eq) in MeOH was added to a solution of tetrachloroauric acid (0.025M, 1 eq) in water. NaBH4 (1M, 22 eq) in water was added in small portions with rapid stirring. The black suspension that was formed was stirred for additional 2 hours and the solvent was then removed under vacuum. The crude of the reaction was washed with MeOH and was centrifuged for 10 minutes. The methanol was removed and the process was repeated several times until the starting material was not detected by TLC. The glyco-nanoparticles are completely insoluble in MeOH but quite soluble in water. • They were purified by dialysis: 50 mg of crude product was dissolved in 10 mL of water (NANOpure). This solution was loaded into 10 cm segments of cellulose ester dialysis membrane (SIGMA, MWCO=12400) and placed in 4 L of water (NANOpure). The dark glyconanoparticles solution was collected from the dialysis segments and lyophilized. The products obtained were free of salts and starting material (absence of signals due to disulphide and Na^+ in NMR).
The presentation of the carbohydrate molecules at the nanoparticles surface was then investigated. The molecular properties of the neoglycoconjugates 1, 2 and 3 suffer a differential change after attaching them to the gold surface. […] The Le^x derivative 3 is soluble in methanol and water, its nanoparticle 3-Au, however, is insoluble in methanol and very soluble in water. These differences in solubility can be used to purify the glyconanoparticles from the non-reacted disulfides by washing them with methanol. However, the most significant fact in these changes is that they reveal the influence of clustering at the surface on the carbohydrate presentation to the surrounding.

Row | solubility in methanol | solubility in water | SMILES
1 | soluble | insoluble | OCC1OC(OC2C(CO)OC(OCCCCCCCCCCCSSCCCCCCCCCCCOC3OC(CO)C(OC4OC(CO)C(O)C(O)C4O)C(O)C3O)C(O)C2O)C(O)C(O)C1O (stereo not shown) [Compound 2]
2 | soluble | soluble | CC(=O)N[C@H]1[C@H](OCCCCCCCCCCCSSCCCCCCCCCCCO[C@@H]2O[C@H](CO)[C@@H](O[C@@H]3O[C@H](CO)[C@H](O)[C@H](O)[C@H]3O)[C@H](O[C@@H]3O[C@@H](C)[C@@H](O)[C@@H](O)[C@@H]3O)[C@H]2NC(C)=O)O[C@H](CO)[C@@H](O[C@@H]2O[C@H](CO)[C@H](O)[C@H](O)[C@H]2O)[C@@H]1O[C@@H]1O[C@@H](C)[C@@H](O)[C@@H](O)[C@@H]1O [Compound 3]
